Data: US4341756A, “Novel amino-dioxepane intermediates for the synthesis of new non-ionic contrast media” (The Regents of the University of California, priority 1980, dated 1982)

How the values were obtained:
rats [1] = experiment: Aversive conditioning in rats (preference/avoidance after injection into the lateral ventricle); assay type: in vivo; conditions: for Aversion expressed in relation to Metrizamide: Metrizamide = 1; for % Aversion: injection into the lateral ventricle, average from a group of 10 rats
Protocol: (§1) Employing conventional procedures, the following tests were carried out and compared with known commercially available contrast media. The following tables indicate the results.
Aversive conditioning in rats: (Test-
ing for preference/avoidance after an injection
into the lateral ventricle via a chronically im-
planted cannula) (Average from a group of 10 rats)

Blepharisma americ. = experiment: Cell Toxicity: LD50 at 4' of a standardized culture of a protozoan; assay type: cell-based; conditions: for LD50: at 4', standardized culture of Blepharisma americ.
Protocol: as §1
(LD50 at 4' of a standardized culture of a
protozoan Blepharisma americ.)

mice = experiment: Systemic Toxicity: LD50 of compound injected intravenously in mice; assay type: in vivo; conditions: intravenous, groups of 10 mice
Protocol: as §1
LD50 (gI/kg bw) of compound injected
intravenously in groups of 10 mice.

Water solubility = assay type: physicochemical; conditions: at 20° C.
Text: (§2) This compound was synthesized as described for the hydroxyacetyl analog (VIIIb). The product was obtained in 69% yield as a colorless glassy solid.

rats [2] = experiment: Neurotoxicity: neural deficits after intracisternal injections in rats; assay type: in vivo; conditions: for Deficit Scores: average of 10 rats, 0 = normal; for Neural deficits: rats
Protocol: as §1
tions in rats with chronically implanted
cannulas into the right ventricle.
Deficit scores were calculated on the basis of a preset rating (average o

Viscosity = assay type: physicochemical; conditions: 37° C., 300 mgI/ml
Text: as §2

CC(O)C(=O)Nc1c(I)c(C(=O)NC(CO)C(O)CO)c(I)c(C(=O)NC(CO)C(O)CO)c1I (racemic) [VIIIc, 2,4,6-triiodo-5-(2-DL or L-hydroxypropionylamino)-isophthalic acid-bis-N,N'-(1,3,4-trihydroxy-threo-but-2-yl)-amide]
Aversion expressed in relation to Metrizamide (rats [1]): 3.4 times less aversive
% Aversion (rats [1]): 9.4%
LD50 (Blepharisma americ.): 148 mg I/ml
Conclusion on toxicity (Blepharisma americ.; compared with Iopamidol and Metrizamide): lower toxicity than Iopamidol and Metrizamide
LD50 (mice): 21.3 gI/kg bw
solubility in water (Water solubility): > 400 mgI/ml
Deficit Scores (rats [2]; 40 mg I): 0
Neural deficits (rats [2]; 40 mg I): Normal
Deficit Scores (rats [2]; 60 mg I): 3.0 ± 1.73
Deficit Scores (rats [2]; 100 mg I): 26 ± 3.2
viscosity (Viscosity): 6.6 cps

C[C@H](O)C(=O)Nc1c(I)c(C(=O)NC(CO)CO)c(I)c(C(=O)NC(CO)CO)c1I [Iopamidol, N,N'-di(1',3'-dihydroxypropyl-2') 5-L-lactoylamido triiodoisophthaldiamide, reference compound]
Aversion expressed in relation to Metrizamide (rats [1]): 1.2 times less aversive
% Aversion (rats [1]): 24.6%
LD50 (Blepharisma americ.): 136 mg I/ml
LD50 (mice): 18.7 gI/kg bw
Deficit Scores (rats [2]; 40 mg I): 1.75 ± 0.96
Deficit Scores (rats [2]; 60 mg I): 22.0
Neural deficits (rats [2]; 100 mg I): Death

CC(=O)Nc1c(I)c(C(=O)N[C@H]2C(O)O[C@H](CO)[C@@H](O)[C@@H]2O)c(I)c(N(C)C(C)=O)c1I (stereo partly shown) [Metrizamide, 3-acetamido-5-(N-methylacetamido) triiodobenzoyl derivative of glucosamine, reference compound]
Aversion expressed in relation to Metrizamide (rats [1]): 1 times less aversive
% Aversion (rats [1]): 29.8%
LD50 (Blepharisma americ.): 133 mg I/ml
LD50 (mice): 12.1 gI/kg bw
Deficit Scores (rats [2]; 40 mg I): 25.3 ± 10.1
Deficit Scores (rats [2]; 60 mg I): 84.2 ± 12.3
Neural deficits (rats [2]; 100 mg I): Death

CN(C(=O)CC(=O)N(C)c1c(I)c(C(=O)NC(CO)C(O)CO)c(I)c(C(=O)NC(CO)C(O)CO)c1I)c1c(I)c(C(=O)NC(CO)C(O)CO)c(I)c(C(=O)NC(CO)C(O)CO)c1I (stereo not drawn) [XVIII, N,N'-bis-Methyl-N,N'-bis [2,4,5-triiodo-3,5-bis-{N,N'-(1,3,4-trihydroxy-threo-but-2-yl)}-carbamoylphenyl]malondiamide]
Deficit Scores (rats [2]; 40 mg I): 0
Neural deficits (rats [2]; 40 mg I): Normal
Deficit Scores (rats [2]; 60 mg I): 0
Neural deficits (rats [2]; 60 mg I): Normal
Deficit Scores (rats [2]; 100 mg I): 0
Neural deficits (rats [2]; 100 mg I): Normal
